Key:
superoxide anion = experiment: Anti-free-radical test: xanthine/xanthine oxidase, reduction of cytochrome C (550 nm); assay type: biochemical; conditions: 0.46% (as active substance); for % anti-free radical inhibition: 25° C.
Procedure: The determination of the anti-free-radical effect is based on the capacity which the molecule to be studied has to inhibit or reduce the rate of reduction of cytochrome C, when it is added to the reaction medium. The superoxide anion is formed by the action of xanthine oxidase on xanthine. It induces, in the absence of a molecule capable of capturing it, the reduction of cytochrome C. The appearance of reduced cytochrome C is monitored in a spectrophotometer at 550 nm, in the presence (Trial) and in the absence (Control) of anti-free-radical molecules.
The reaction is carried out in a spectrophotometer thermostated at 25° C. and provided with a sample changer. All the kinetics are determined at least three times; the mean and the standard deviation are calculated for the three values obtained. A percentage inhibition of the rate of appearance of the coloured product (corresponding to the quantity of free superoxide anion) is therefore calculated for each active agent tested. The calculation is performed relative to the rate of appearance of the coloured product in the control (without active agent). The percentage inhibition of the appearance of the coloured product by the active agent therefore corresponds to the percentage inhibition of the superoxide anion.

[1] = system: normal human keratinocytes; experiment: Cell division: fluorimetric DNA assay in keratinocytes under thermal stress; assay type: cell-based
Procedure: The effect of the active agents on cell division is measured by a fluorimetric assay of the content of DNA in normal human keratinocytes subjected to a high thermal stress (20 minutes at 50° C.). The quantity of DNA present in the cells determines their capacity to divide. The cells are used at 60% confluence. They are incubated for 24 hours in the presence of the active agents. Cell division is determined by assaying the quantity of DNA present per well.
Four samples A, B, C and D, of a culture normal human keratinocytes, are subjected to the following respective treatments:
Sample A: cells not treated and left at room temperature.
Sample B: cells not treated and heated at 50° C. for 20 minutes.
Sample D: cells left incubated for 24 hours with panthenol (concentration: 12.5×10^−6% by weight of active substance) and heated at 50° C. for 20 minutes.
The DNA in each of the samples is then assayed.

Q: Which “Anti-free radical activity (in words)” value (superoxide anion) does the source give for CC(C)(CO)C(O)C(=O)NCCCO (stereo not drawn) [Panthenol, 2,4-dihydroxy-N-(3-hydroxypropyl)-3,3-dimethylbutanamide] here?
A: Its value is “nonexistent”.

Q: And the “% anti-free radical inhibition” value (superoxide anion)?
A: Its value is 0%.

Q: And the “Relative level of cell division (base 100: batch B)” value ([1]; Sample D: 12.5×10^−6% active substance, 24 hours, 50° C. for 20 minutes)?
A: The value was 116.2.

Q: What about the “Cell division (in μg/well), DNA per well” value ([1]; Sample D: 24 hours with 12.5×10^−6% by weight of active substance, then 50° C. for 20 minutes (heated untreated sample B 3.7)) of the same molecule?
A: Its value is 4.3 μg/well.

Q: What about the “Effect on cell division under heat (in words)” value ([1]; keratinocytes heated at 50° C. for 20 minutes) of the same molecule?
A: The value was “only compensates for these effects”.

Q: Which “% anti-free radical inhibition” value (superoxide anion) does the source give for O=C1O[C@H]([C@@H](O)CO)C(O)=C1O [Vitamin C, ascorbic acid] here?
A: Its value is 94%.

Reference: patent US20020006906A1, “Novel active agent, composition containing it and use in the cosmetic, dermocosmetic, dermopharmaceutical or pharmaceutical field or on woven or nonwoven supports” (SOCIETE D'EXPLOITATION DE PRODUITS POUR LES, priority 2000, published 2002)
